# According to ChEMBL document CHEMBL1287721, “Synthesis of potent, substituted carbazoles as selective androgen receptor modulators (SARMs)” (Bioorg Med Chem Lett, 2010):
# pIC50: −log10 of the molar value. Activity calls are given as the source filed them. The calls are words filed in the database; no cut-off is given here.
# Molecular target: T1, Androgen receptor (Homo sapiens, UniProt P10275)
# T1 sequence (P10275 whole entry): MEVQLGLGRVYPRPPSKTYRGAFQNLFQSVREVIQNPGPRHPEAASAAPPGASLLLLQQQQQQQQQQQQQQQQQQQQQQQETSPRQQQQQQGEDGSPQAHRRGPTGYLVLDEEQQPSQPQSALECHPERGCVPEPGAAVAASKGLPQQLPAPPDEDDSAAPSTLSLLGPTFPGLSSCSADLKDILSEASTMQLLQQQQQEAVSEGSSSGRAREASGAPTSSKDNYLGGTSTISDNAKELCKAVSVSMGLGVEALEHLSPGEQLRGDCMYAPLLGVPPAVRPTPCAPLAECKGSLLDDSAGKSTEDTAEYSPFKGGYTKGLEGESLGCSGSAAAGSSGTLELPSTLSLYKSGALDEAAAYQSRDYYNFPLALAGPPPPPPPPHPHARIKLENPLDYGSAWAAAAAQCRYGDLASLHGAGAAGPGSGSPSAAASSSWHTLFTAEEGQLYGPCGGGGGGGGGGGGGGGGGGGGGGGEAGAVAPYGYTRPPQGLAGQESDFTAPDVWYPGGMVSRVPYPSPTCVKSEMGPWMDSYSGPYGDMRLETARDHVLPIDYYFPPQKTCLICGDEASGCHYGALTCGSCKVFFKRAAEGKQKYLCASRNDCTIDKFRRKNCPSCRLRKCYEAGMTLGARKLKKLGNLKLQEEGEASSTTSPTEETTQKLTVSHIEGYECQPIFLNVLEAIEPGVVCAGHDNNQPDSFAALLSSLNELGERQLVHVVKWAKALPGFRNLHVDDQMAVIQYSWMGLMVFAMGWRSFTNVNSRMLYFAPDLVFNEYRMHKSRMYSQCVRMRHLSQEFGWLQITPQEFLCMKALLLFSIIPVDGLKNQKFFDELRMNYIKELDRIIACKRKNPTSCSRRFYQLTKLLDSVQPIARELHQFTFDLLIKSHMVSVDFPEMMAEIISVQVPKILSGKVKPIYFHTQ
# Assay: Binding affinity to androgen receptor by fluorescence binding assay
# Conditions: not given
row,Compound,pIC50
1,CC1(O)CCCc2c1[nH]c1ccc(C#N)cc21 (stereo unspecified),5.04
2,Oc1c(Cc2ccccc2)ccc2c1[nH]c1cc(Cl)c(Cl)cc12,< 6.00
3,N#Cc1ccc2[nH]c3c(c2c1)CCCC3(O)C(F)(F)C(F)(F)F (stereo unspecified),< 5.00
4,OC1(C(F)(F)F)CCCc2c1[nH]c1c(Cl)cc(Cl)cc21 (stereo unspecified),7.47
5,CC1(O)CCCc2c1[nH]c1cc(Cl)c(Cl)cc21 (stereo unspecified),< 5.00
6,Oc1c(Cc2ccccc2)ccc2c1[nH]c1ccc(Cl)c(Cl)c12,< 6.00
7,OC1(C(F)(F)F)CCCCc2c1[nH]c1c(Cl)cc(Cl)cc21 (stereo unspecified),6.22

# Results, then the compound that gave them:
row,pIC50,Compound
1,7.57,OC1(C(F)(F)F)CCCc2c1[nH]c1cc(Cl)c(Cl)cc21 (stereo unspecified)
2,7.02,OC1(C(F)(F)F)CCCc2c1[nH]c1ccc(Cl)c(Cl)c21 (stereo unspecified)
3,6.32,N#Cc1ccc2[nH]c3c(c2c1)CCCC3(O)C(F)(F)F (stereo unspecified)
4,7.89,OC1(C(F)(F)F)CCc2c1[nH]c1c(Cl)cc(Cl)cc21 (stereo unspecified)
5,7.00,OC1(C(F)(F)F)c2[nH]c3c(Cl)cc(Cl)cc3c2CCC1(F)F (stereo unspecified)
6,7.47,OC1(C(F)(F)C(F)(F)F)CCCc2c1[nH]c1cc(Cl)c(Cl)cc21 (stereo unspecified)
7,7.05,OC1(C(F)(F)F)CCCc2c1[nH]c1c(Cl)cc(F)cc21 (stereo unspecified)
8,7.07,OC1(C(F)(F)F)CCCc2c1[nH]c1c(Cl)ccc(Cl)c21 (stereo unspecified)

# Tested on: Rattus norvegicus
# Assay: Positive-anabolic effect in Sprague-Dawley rat assessed as increase in leavator ani muscle weight at 30 mg/kg, po administered once daily for 4 days and measured 24 hrs after the last dose by Herschberger assay
# Assay type: functional, organism-based
# Parameters: dose 30 mg/kg
# Conditions: Muscle tissue
row,Compound,Activity
1,OC1(C(F)(F)F)CCCc2c1[nH]c1cc(Cl)c(Cl)cc21 (stereo unspecified),Active
